Test results from ChEMBL document CHEMBL6078635, “Advances in diarylpyrimidines and related analogues as HIV-1 nonnucleoside reverse transcriptase inhibitors (2019-2023)” (Eur J Med Chem, 2024).
One block for each compound: values may come before it.

Legend:
[1] = system: Human immunodeficiency virus 1; test: Antiviral activity against HIV1 harboring K103N/Y181C double mutant; type: functional, organism-based
[2] = system: Human immunodeficiency virus 1; test: Antiviral activity against HIV1 harboring E138K mutant infected in MT4 cells; type: functional, organism-based; details: Human immunodeficiency virus 1, MT4
[3] = system: Human immunodeficiency virus 1; test: Antiviral activity against wild type HIV-1; type: functional, organism-based
[4] = system: Human immunodeficiency virus 1; test: Antiviral activity against HIV-1 […] mutant; type: functional, organism-based
[5] = system: Human immunodeficiency virus 1; test: Antiviral activity against HIV1 harboring K103N mutant infected in MT4 cells; type: functional, organism-based; details: Human immunodeficiency virus 1, MT4
[6] = system: Human immunodeficiency virus 1; test: Antiviral activity against HIV1 harboring Y188L mutant infected in MT4 cells; type: functional, organism-based; details: Human immunodeficiency virus 1, MT4
[7] = system: Human immunodeficiency virus 1; test: Antiviral activity against HIV1 harboring Y181C mutant infected in MT4 cells; type: functional, organism-based; details: Human immunodeficiency virus 1, MT4
[8] = Aqueous solubility of compound at pH 7.4 incubated for 24 hrs by LC-MS/MS analysis; type: physicochemical; details: buffer
[9] = Lipophilicity, logP of compound; type: physicochemical; details: octanol/water
[10] = system: Human immunodeficiency virus 1; test: Antiviral activity against HIV1 harboring F227L/V106A double mutant infected in MT4 cells; type: functional, organism-based; details: Human immunodeficiency virus 1, MT4
[11] = system: MT4; test: Cytotoxicity against human MT4 cells assessed as reduction in cell viability after 5 days by MTT assay; type: functional; details: MT4, 120 h, time 5 day
[12] = system: Human immunodeficiency virus 1; test: Antiviral activity against wild type HIV-1 3B infected in human MT4 cells assessed as inhibition of virus-induced cytopathic effect measured for 5 days by MTT assay; type: functional, organism-based; details: Human immunodeficiency virus 1, 3B, MT4, 120 h
[13] = system: Human immunodeficiency virus 1; test: Antiviral activity against HIV-1 Y188L mutant infected in human MT4 cells assessed as reduction in virus induced cytopathic effect incubated for 5 days by MTT method; type: functional, organism-based; details: Human immunodeficiency virus 1, MT4, 120 h
[14] = system: Human immunodeficiency virus 1; test: Antiviral activity against HIV-1 3B harboring E138K mutant infected in MT4 cells assessed as reduction in virus induced cytopathic effect incubated for 5 days by MTT assay; type: functional, organism-based; details: Human immunodeficiency virus 1, 3B, MT4, 120 h
[15] = system: Human immunodeficiency virus 1; test: Antiviral activity against NNRTI-resistant HIV-1 harboring Y181C mutant assessed as inhibition of viral growth; type: functional, organism-based
[16] = system: Human immunodeficiency virus 1; test: Antiviral activity against HIV1 harboring K103N mutant infected in MT4 cells assessed as inhibition of viral growth; type: functional, organism-based; details: Human immunodeficiency virus 1, MT4
[17] = system: Human immunodeficiency virus 1; test: Antiviral activity against HIV-1 3B harboring F227L/V106A double mutant infected in MT4 cells assessed as reduction in virus induced cytopathic effect incubated for 5 days by MTT method; type: functional, organism-based; details: Human immunodeficiency virus 1, 3B, MT4, 120 h
[18] = system: Human immunodeficiency virus 1; test: Antiviral activity against HIV-1 3B harboring L100I mutant infected in MT4 cells assessed as reduction in virus induced cytopathic effect incubated for 5 days by MTT method; type: functional, organism-based; details: Human immunodeficiency virus 1, 3B, MT4, 120 h
[19] = Metabolic stability in human liver microsomes assessed as intrinsic clearance measured for 60 mins by LC-MS/MS analysis; type: ADME, Microsome; details: read-out: CLH
[20] = system: MOLT-4; test: Cytotoxicity against human MOLT-4 cells assessed as reduction in cell viability by MTT assay; type: functional
[21] = Metabolic stability in human liver microsomes assessed as half life measured upto 120 mins by LC-MS/MS analysis; type: ADME, Microsome
[22] = system: MT4; test: Cytotoxicity against human MT4 cells assessed as reduction in cell viability; type: functional
[23] = system: Human immunodeficiency virus 1; test: Antiviral activity against HIV-1 3B infected in human MT4 cells assessed as inhibition of viral replication incubated for 5 days by MTT assay; type: functional, organism-based; details: Human immunodeficiency virus 1, 3B, MT4, 120 h
[24] = Selectivity index, ratio of CC50 for cytotoxicity against human MT4 cells to EC50 for antiviral activity against wild type HIV-1 IIIB infected in human MT4 cells; type: toxicity, cell-based; details: read-out: Selectivity Index
[25] = system: MT2; test: Cytotoxicity against human MT2 cells; type: functional
[26] = biological target: Human immunodeficiency virus type 1 reverse transcriptase (Human immunodeficiency virus 1, UniProt Q72547); test: Inhibition of wild type HIV-1 Reverse transcriptase

SMILES: N#Cc1ccc(Nc2nc(N)cc(Oc3c(F)cc(-c4ccc(C#N)cc4)cc3F)n2)cc1
- EC50 [1]: 10 nM
- EC50 [2]: 8 nM
- EC50 [3]: 1.8 nM
- EC50 [4]: 16 nM
- EC50 [5]: 2 nM
- EC50 [6]: 1050 nM
- EC50 [7]: 32 nM
- solubility at 24 h [8]: < 1 µg/mL

- logP [9]: 5.36
SMILES: N#Cc1ccc(Nc2nccc(Oc3ccc4ccccc4c3)n2)cc1

SMILES: Cc1cc(/C=C/C#N)cc(C)c1Oc1nc(NC2CCN(Cc3ccc(B(O)O)cc3)CC2)nc2c1COC2
- EC50 [1]: 77.9 nM
- EC50 [10]: 43.2 nM
- EC50 [2]: 17.3 nM
- EC50 [3]: 7.23 nM
- EC50 [4]: 9.85 nM
- EC50 [5]: 7.19 nM
- EC50 [6]: 39.9 nM
- EC50 [7]: 19.7 nM
- CC50 [11]: 25600 nM

SMILES: Cc1cc(-c2ccc(F)cc2)cc(C)c1Oc1nc(NC2CCN(Cc3ccc(C(N)=O)cc3)CC2)nc2ccsc12
- EC50 [12]: 12.8 nM
- EC50 [1]: 575 nM
- EC50 [13]: 51.4 nM
- EC50 [14]: 34.8 nM
- EC50 [15]: 36.1 nM
- EC50 [16]: 11.7 nM
- EC50 [17]: 56.6 nM
- EC50 [18]: 61.1 nM

SMILES: N#Cc1ccc(Nc2ncc(CO)c(Nc3c(F)cc(-c4ccc(C#N)cc4)cc3F)n2)cc1
- CLint scaled [19]: 0.763 mL/min/kg
- CC50 [20]: 225000 nM
- EC50 [2]: 3.5 nM
- EC50 [3]: 0.9 nM
- half-life [21]: 45.9 h
- EC50 [4]: 1.9 nM
- EC50 [6]: 162 nM
- EC50 [7]: 8.2 nM

SMILES: Cc1cc(-c2ccsc2)cc(C)c1Oc1nc(NC2CCN(Cc3ccc(C(N)=O)cc3)CC2)nc2ccsc12
- EC50 [12]: 240 nM
- EC50 [1]: 4520 nM
- EC50 [13]: 628 nM
- EC50 [14]: 739 nM
- EC50 [15]: 741 nM
- EC50 [16]: 171 nM
- EC50 [17]: 854 nM
- EC50 [18]: 925 nM

SMILES: Cc1cc(-c2ccoc2)cc(C)c1Oc1nc(NC2CCN(Cc3ccc(C(N)=O)cc3)CC2)nc2ccsc12
- EC50 [12]: 57.5 nM
- EC50 [1]: 813 nM
- EC50 [13]: 222 nM
- EC50 [14]: 177 nM
- EC50 [15]: 180 nM
- EC50 [16]: 74.8 nM
- EC50 [17]: 525 nM
- EC50 [18]: 262 nM

SMILES: Cc1cc(-c2ccc(C#N)cc2)cc(C)c1Oc1nc(NC2CCN(Cc3ccc(C(N)=O)cc3)CC2)nc2ccsc12
- EC50 [12]: 9.93 nM
- EC50 [1]: 125 nM
- EC50 [13]: 23.9 nM
- EC50 [14]: 23.2 nM
- EC50 [15]: 18.9 nM
- EC50 [16]: 6.02 nM
- EC50 [17]: 97.2 nM
- EC50 [18]: 10.5 nM

SMILES: N#Cc1ccc(Nc2nccc(C(C#N)c3ccc(-c4ccc(C#N)cc4)c(F)c3)n2)cc1 (configuration not stated)
- CC50 [22]: 36400 nM
- EC50 [1]: > 36500 nM
- EC50 [10]: > 25600 nM
- EC50 [2]: 170 nM
- EC50 [4]: 1210 nM
- EC50 [5]: 900 nM
- EC50 [6]: 9810 nM
- EC50 [23]: 20 nM
- EC50 [7]: 870 nM

SMILES: Cc1cc(C#CC2CCN(Cc3ccncc3)CC2)cc(C)c1Oc1ccnc(Nc2ccc(C#N)cc2)n1
- EC50 [2]: 190 nM
- EC50 [3]: 19 nM
- EC50 [5]: 50 nM
- selectivity ratio [24]: 101
- CC50 [25]: 192000 nM

SMILES: COC(=O)n1ncc(-c2cc(C)c(Oc3ccnc(Nc4ccc(C#N)cc4)n3)c(C)c2)n1
- EC50 [2]: 160 nM
- EC50 [3]: 13 nM
- EC50 [5]: 22 nM
- CC50 [25]: > 242000 nM

- IC50 [26]: 11 nM
SMILES: N#Cc1ccc(Nc2nccc(Oc3ccc4cccnc4c3Br)n2)cc1
- CC50 [25]: > 299000 nM

SMILES: Cc1cc(-c2ccc(C#N)cc2)cc(C)c1Oc1nc(NC2CCN(Cc3ccc(S(N)(=O)=O)cc3)CC2)nc2ccsc12
- EC50 [12]: 17 nM
- EC50 [1]: 103 nM
- EC50 [13]: 53.6 nM
- EC50 [14]: 44.4 nM
- EC50 [15]: 30.8 nM
- EC50 [16]: 13.2 nM
- EC50 [17]: 59.9 nM
- EC50 [18]: 27.4 nM

SMILES: Cc1cc(/C=C/C#N)cc(C)c1Nc1ccnc(Nc2ccc(C#N)cc2)n1 [RILPIVIRINE]
- CC50 [11]: > 3980 nM
